Results: patent US6485755B1, “Methods of using electron active compounds for managing cancer” (Marantech Holding, priority 2000, dated 2002)
Read-outs that look alike come from different tables or passages of the source.

Legend:
[1] = system: athlete's foot; conditions: solution of 100 ppm of the composition; cited from earlier work
[2] = system: gynecological yeast infection; conditions: 10 ppm silver tetroxide and 40 ppm sodium persulfate; cited from earlier work
[3] = persons not prone to silver allergies
From the text: Preferred routes of administration include topically and application to mucosa. Application can be made, for example, digitally or using a suitable applicator.

[4] = system: KATO III; conditions: estimated
Description: (§1) An independent laboratory performed cytotoxicity tumor cell proliferation studies and evaluations. A culture of leukemia K562 was tested in vitro against media concentrations of tetrasilver tetroxide at: 0.5, 1,5, 10, 50, 100, 500 and 1000 ppm.
(§2) The tetroxide was dispersed in pure dimethyl sulfoxide and then diluted with Holipharm NPS buffer PH=7.4 (Holipharm International Co., Wilmington, Del.) in culture media to achieve the aforesaid final assay concentrations. The acronym NPS refers to non phosphate non saline. The culture media comprised RPMI 1640, 90% and fetal bovine serum, 10%. The cancer cultures were obtained from a cell line provided by the American Type Culture Collection (ATCC) and were incubated at 37° C. with 5% CO2 in air atmosphere. The culture was a human chronic myelogenous leukemia, of cell line source ATCCCCL-243.
(§3) As for the actual evaluation, cell proliferation analysis was based on the ability of viable cells to cause alamar blue to change from oxidized (non-fluorescent, blue) to reduced (fluorescent, red) form. Details of the procedure are described in an article by S. Ansar Ahmed et. al. in the Journal of Immunological Methods 170 (1994).
(§4) The ^aIC50 (50% Inhibition Concentration) is the test compound concentration where the increase from times in the number or mass of treated cells was only 50% as much as the corresponding increase in the vehicle-control at the end of experiment. The bTGI (Total Growth Inhibition) is the test compound concentration where the number or mass of treated cells at the end of experiment was equal to that at time. The CLC (50% Lethal Concentration) is the test compound concentration where the number or mass of treated cells at the end of experiment was half that at time.

[5] = system: U937; conditions: U937, estimated
Description: as §1, §2, §3, §4

[6] = system: leukemia K562
Description: as §1, §2, §3, §4

[7] = system: HeDG2; conditions: HeDG2, estimated
Description: as §1, §2, §3, §4

[8] = system: A549; conditions: A549, estimated
Description: as §1, §2, §3, §4

[9] = system: HL-60; conditions: HL-60, estimated
Description: as §1, §2, §3, §4

[10] = system: MCF-7; conditions: MCF-7, estimated
Description: as §1, §2, §3, §4

[11] = system: DLD-i; conditions: estimated
Description: as §1, §2, §3, §4

[12] = system: PC-3; conditions: PC-3, estimated
Description: as §1, §2, §3, §4

[13] = system: H33HJ-.JA1; conditions: H33HJ-.JA1, estimated
Description: as §1, §2, §3, §4

[14] = system: PANC-i; conditions: estimated
Description: as §1, §2, §3, §4

[15] = system: MIA PaCa2; conditions: MIA PaCa2, estimated
Description: as §1, §2, §3, §4

[16] = system: pc-6; conditions: pc-6, estimated
Description: as §1, §2, §3, §4

[17] = system: human malignant melanoma cell line SK-MEL-5
Description: as §1, §2, §3, §4

[18] = system: T47D; conditions: estimated
Description: as §1, §2, §3, §4

[19] = system: A498; conditions: A498, estimated
Description: as §1, §2, §3, §4

[20] = system: breast cancer
Description: A subject group was formed of thirty female residents of Central America aged 32 to 52 years who had been diagnosed as having breast cancer. […] The diagnosis of each subject was confirmed by biopsy and a mammogram was acquired from each subject.
Each subject was evaluated daily by an oncologist(s) and each received a single dosage of tetrasilver tetroxide by IV, i.e., intravenously, sufficient to provide a concentration in the bloodstream of 10 ppm. One-half of the patients received the dosage in 10 minutes by IV injection. The other half of the subjects received the dosage by IV injection over a 4-hour period.
As discussed below, the subjects were arranged in three histology groups. Within each histologic group, 50% of the subjects received the dosage via the 10 minute IV and the other 50% of the subjects received the dosage over the 4 hour period of time.
Prior to initiating treatment, the tetrasilver tetroxide was subjected a quality assurance protocol to reduce side effects.
Group I: Group I included 10 patients who had been diagnosed as having infiltrative canalicular breast carcinoma.
A 1 cm diameter biopsy fragment was sent to a pathologist laboratory.
Group II: Group II included 10 subjects were diagnosed as having ductile carcinoma special type, medular breast cancer.
Group III: Group III included ten patients diagnosed as having infiltrative lobular breast cancer.
For each of the three groups, the dosage was 10 ppm for every subject. The patients had 24-hour evaluations by three oncologists who were each responsible for an 8-hour time period. Every 4 hours, a professional nurse acquired vital signs from the subjects. Twenty-four hour hemodynamic monitoring was performed. The subjects walked 2 hours after they received the dosage and they were prescribed a free diet. Every twenty-four hours, urine was collected. Every seven days, the following laboratory tests were performed: a complete blood count, hemoglobin, hematocracity, vcm, vhcm, complete red blood cells, complete white blood cells, albumin, bilirubin, calcium, and cholesterol, creatine, glucose, ldh, potassium, sodium, triglyceride, uric acid, urea nitrogen, AST and SGOT.

[21] = system: toenail fungus; conditions: 25% suspension of the composition; cited from earlier work
[22] = compared with Ag(I) compounds; cited from earlier work
[23] = single IV injection at about 40 ppm of human blood; cited from earlier work
[24] = Group III, day 20 after treatment

## [Ag+].[Ag+].[Ag+].[Ag+].[O-2].[O-2].[O-2].[O-2] [tetrasilver tetroxide]
[1]
  outcome of athlete's foot, single case: cure
[2]
  outcome of gynecological yeast infection: curing
[3]
  ill effects or irritation on application to the skin: without any ill effects or evidence of irritation
[4]
  IC50: 3.2 ppm
  LC50: 4.1 ppm
  TGI: 3.6 ppm
[5]
  IC50: 1.3 ppm
  LC50: 3.6 ppm
  TGI: 2.2 ppm
[6]
  IC50 (50% Inhibition Concentration): 2.2 ppm
  LC50 (50% Lethal Concentration): 6.0 ppm
  TGI (Total Growth Inhibition): 4.6 ppm
[7]
  IC50: 2.6 ppm
  LC50: 4.7 ppm
  TGI: 3.5 ppm
[8]
  IC50: 4.8 ppm
  LC50: 7.0 ppm
  TGI: 5.8 ppm
[9]
  IC50: 2.1 ppm
  LC50: 4.6 ppm
  TGI: 3.1 ppm
[10]
  IC50: 3.0 ppm
  LC50: 5.0 ppm
  TGI: 3.9 ppm
[11]
  IC50: 2.5 ppm
  LC50: 3.6 ppm
  TGI: 3.0 ppm
[12]
  IC50: 7.7 ppm
  LC50: 25 ppm
  TGI: 14 ppm
[13]
  IC50: 0.79 ppm
  LC50: 3.8 ppm
  TGI: 1.3 ppm
[14]
  IC50: 4.8 ppm
  LC50: 8.6 ppm
  TGI: 6.4 ppm
[15]
  IC50: 2.0 ppm
  LC50: 8.1 ppm
  TGI: 4.0 ppm
[16]
  IC50: 0.9 ppm
  LC50: 1.1 ppm
  TGI: 1.0 ppm
[17]
  IC50 (50% Inhibition Concentration): 3.7 ppm
  LC50 (50% Lethal Concentration): 6.5 ppm
  TGI (Total Growth Inhibition): 4.9 ppm
[18]
  IC50: 1.1 ppm
  LC50: 2.6 ppm
  TGI: 1.6 ppm
[19]
  IC50: 1.8 ppm
  LC50: 3.1 ppm
  TGI: 2.4 ppm
[20]; Group I
  sodium, potassium and magnesium blood levels: decreased
[20]; Group I infiltrative canalicular breast carcinoma, single IV dose 10 ppm in bloodstream, 12 days after treatment
  nodule on palpation: the nodule was no longer discernable by touch
[20]; Group I, 10 minute IV injection subgroup
  patients with increase in body temperature and slight liver enlargement: Three of the patients
[20]; Group I, biopsy ordered 19 days after treatment
  biopsies reported as normal mammary tissue: 100%
[20]; Group I, patients with liver enlargement
  liver function: not affected
[20]; Group II
  liver function: not affected
  sodium, potassium and magnesium blood levels: decreased
[20]; Group II medular breast cancer, 36 hours after treatment, formerly 10 cm
  average tumor size: 8.4 cm
[20]; Group II, biopsy after 24 days
  biopsy reported as normal mammary tissue: 90%
[20]; Group II, day 16 after treatment
  tumor mass: the huge tumor mass was gone
[20]; Group II, direct IV injection subgroup
  patients with increase in body temperature and slight liver enlargement: One patient
[20]; Group III
  sodium, potassium and magnesium blood levels: deceased
[20]; Group III infiltrative lobular breast cancer, 5 days after treatment, from 4 cm
  average nodule size: 2.6 cm
[20]; Group III, biopsy ordered day 29 after treatment
  biopsies reported as normal mammary tissue: 80%
[20]; [24]
  average nodule size: 1 cm
  remission of retracted nipples, nipple bleeding, distorted areola, mass attachment: 90%
[20]; Group III, direct injection subgroup
  patients with increase in body temperature or slight liver enlargement: None of the patients
[20]; ductile carcinoma special type, medular breast carcinoma (Group II)
  period to apparent cure: 30 days
[20]; infiltrative breast carcinoma (Group I)
  period to apparent cure: 24 days
[20]; infiltrative lobular breast cancer (Group III)
  period to apparent cure: 30 days
[21]
  outcome of toenail fungus, single case: cure
[22]
  staining of organic matter such as skin: did not stain organic matter such as skin
[23]
  adverse effect on the liver: hepatomegaly
  liver function: no reported loss of liver function
